{"source": "paper PMC13483160", "about": "“Reorganization of Innate Immune Cell Lipid Profiles by Bioinspired Meroterpenoids to Limit Inflammation” (Advanced Science, 2026)", "biological_target": "T1, 5-lipoxygenase (ALOX5) (Homo sapiens, UniProt P09917)", "T1 sequence (P09917 1-674)": "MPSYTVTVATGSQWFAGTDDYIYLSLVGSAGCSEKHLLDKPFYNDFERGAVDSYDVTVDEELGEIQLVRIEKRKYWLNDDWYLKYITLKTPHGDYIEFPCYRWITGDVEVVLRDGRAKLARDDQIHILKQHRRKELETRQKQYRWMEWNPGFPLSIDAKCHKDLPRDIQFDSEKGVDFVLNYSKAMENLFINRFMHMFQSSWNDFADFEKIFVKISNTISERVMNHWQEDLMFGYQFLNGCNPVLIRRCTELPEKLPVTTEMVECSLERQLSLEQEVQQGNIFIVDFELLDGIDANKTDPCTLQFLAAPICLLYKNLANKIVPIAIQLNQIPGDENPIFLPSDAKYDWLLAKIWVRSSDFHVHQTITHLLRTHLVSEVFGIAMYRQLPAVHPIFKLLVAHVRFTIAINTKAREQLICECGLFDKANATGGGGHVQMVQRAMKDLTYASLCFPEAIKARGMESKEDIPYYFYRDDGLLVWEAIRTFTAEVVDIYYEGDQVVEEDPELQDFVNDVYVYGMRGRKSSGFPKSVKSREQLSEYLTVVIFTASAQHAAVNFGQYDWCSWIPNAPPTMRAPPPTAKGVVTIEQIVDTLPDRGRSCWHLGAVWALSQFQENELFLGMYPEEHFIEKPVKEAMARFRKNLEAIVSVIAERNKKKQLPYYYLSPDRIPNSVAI", "test": "enzyme kinetics of human recombinant ALOX5 at varying AA ([…])", "format": "biochemical", "data": [{"compound": "CCCCC/C=C\\C/C=C\\C/C=C\\C/C=C\\CCCC(=O)O", "note": "[AA/20:4, 5Z,8Z,11Z,14Z‐eicosatetraenoic acid]", "values": [{"measurement": "enzyme kinetics of human recombinant ALOX5 at varying AA (3-300 μM)", "value": "Lineweaver–Burk plot generated from activity data of human recombinant ALOX5"}]}]}
